Among the test systems are OVCAR-5 ovarian; UACC-62 melanoma; HL-60(TB) leukemia; OVCAR-8 ovarian; SNB-75 CNS; HOP-92 NSCLC; SF-268 CNS; EKVX NSCLC; MDA-MB-231 breast; LOX IMVI melanoma.
What all share (assay): NCI tumour cell line growth inhibition, 48 h

The values below come from PubChem BioAssay (NCI).

“And” between values parts separate entries of the source, which are not always exact repeats. Equal values may be shown once.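 Step 1: Grow cells in 96-well plates. Step 2: Expose to compound for 48 hours at 5 concentrations. Step 3: Interpolate endpoints linearly; if unreached, use highest concentration. Abbreviation: GI50, concentration required for 50% inhibition of growth. TGI: total growth inhibition.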 Bounds are passed on as bounds.

Consider `CO[C@@H]1/C=C\C=C(/C)C(=O)NC2=CC(=O)C(NCCN(C)C)=C(C[C@@H](C)C[C@@H](OC)[C@@H](O)[C@H](C)/C=C(\C)[C@H]1OC(N)=O)C2=O`, for which the GI50 was 0.406 µM and 0.11 µM in the test with OVCAR-5 ovarian; < 10.6 nM and 71.5 nM in the test on HL-60(TB) leukemia; 21.6 nM with OVCAR-8 ovarian; < 23.5 nM with SNB-75 CNS; 966 nM and 175 nM in the test on HOP-92 NSCLC; 1190 nM and 209 nM with SF-268 CNS. The GI50 with EKVX NSCLC is 641 nM and 145 nM; in the test on MDA-MB-231 breast, 19 nM and 18 nM; with LOX IMVI melanoma, < 13 nM. The TGI in the test on OVCAR-5 ovarian is 9.23 µM and 7.52 µM; in the test with UACC-62 melanoma, 1.25 µM and 3.87 µM; in the test with HL-60(TB) leukemia, 1.4 µM and 0.734 µM; in the test with OVCAR-8 ovarian, 2.95 µM and 6.36 µM; in the test on SNB-75 CNS, 0.977 µM and 6.15 µM; in the test on HOP-92 NSCLC it was 11.7 µM and 2.1 µM. Moreover, the TGI in the test with SF-268 CNS was 16.5 µM and 16.2 µM; with EKVX NSCLC, 11.1 µM and 7.59 µM; with MDA-MB-231 breast, 7.26 µM and 2.24 µM; in the test with LOX IMVI melanoma, 0.379 µM.

For `CCN(CC)CCCC(C)Nc1c2ccc(Cl)cc2nc2ccc(OC)cc12` (stereo unspecified), the GI50 in the test with OVCAR-5 ovarian was 2.34 µM; in the test with HL-60(TB) leukemia, 1810 nM; with OVCAR-8 ovarian it was 1230 nM; with SNB-75 CNS it was 2350 nM; in the test on HOP-92 NSCLC it was 811 nM; with EKVX NSCLC it was 2090 nM. Moreover, the results for the GI50 with MDA-MB-231 breast and with LOX IMVI melanoma were 968 nM and 1520 nM, respectively. The TGI is 6.45 µM and 4.75 µM in the test with OVCAR-5 ovarian; 3.29 µM and 3.4 µM in the test with UACC-62 melanoma; 9.64 µM and 10.7 µM in the test on HL-60(TB) leukemia; 5.64 µM and 5.73 µM in the test on OVCAR-8 ovarian; 6.66 µM and 3.05 µM with SNB-75 CNS; 3.17 µM and 2.53 µM in the test on HOP-92 NSCLC. The TGI is 5.03 µM and 7.68 µM in the test with SF-268 CNS; 7.29 µM and 13.3 µM in the test with EKVX NSCLC; 3.56 µM and 2.57 µM in the test on LOX IMVI melanoma.

In the case of `CC1=C2[C@@H](CC1)[C@]1(C)O[C@@](C3CCCCC3)(C[C@H]1OC(=O)CO)[C@H]2OC(=O)/C=C/c1ccccc1`, the GI50 with OVCAR-5 ovarian was 15.2 µM; in the test on UACC-62 melanoma it was 9.82 µM; in the test with HL-60(TB) leukemia, 6480 nM; in the test on OVCAR-8 ovarian it was 110 nM; in the test with SNB-75 CNS, 7940 nM; in the test on HOP-92 NSCLC it was 3680 nM. Also, the GI50 with SF-268 CNS is 1020 nM; in the test with EKVX NSCLC, 5830 nM; in the test with MDA-MB-231 breast, 18300 nM; with LOX IMVI melanoma, 5310 nM. For the same compound, the TGI with OVCAR-5 ovarian came out at 37.1 µM; in the test with UACC-62 melanoma, 25.8 µM; in the test on HL-60(TB) leukemia it was 18.3 µM; in the test with OVCAR-8 ovarian it was 12.9 µM; with SNB-75 CNS it was 34.8 µM; in the test with HOP-92 NSCLC, 12.2 µM. The TGI turned out to be 17.6 µM in the test on SF-268 CNS, 19.5 µM in the test with EKVX NSCLC, 41.5 µM in the test on MDA-MB-231 breast and 11.2 µM with LOX IMVI melanoma.

On to `ClCc1cccc(Cn2cnc3c(NC45CC6CC(CC(C6)C4)C5)ncnc32)c1`, for which the GI50 with OVCAR-5 ovarian is 19.2 µM; in the test on UACC-62 melanoma, 16.3 µM; in the test on HL-60(TB) leukemia, 1240 nM; with OVCAR-8 ovarian, 17800 nM; with SNB-75 CNS it was 17400 nM; with HOP-92 NSCLC it was 17300 nM. For the same compound, the GI50 in the test on SF-268 CNS is 12000 nM; with EKVX NSCLC, 18600 nM; in the test on MDA-MB-231 breast it was 15500 nM; in the test with LOX IMVI melanoma it was 15700 nM. In addition, the TGI in the test on OVCAR-5 ovarian is 36.4 µM; with UACC-62 melanoma, 36.5 µM; with HL-60(TB) leukemia, 26.6 µM; in the test with OVCAR-8 ovarian it was 50.8 µM; in the test with SNB-75 CNS, 43.1 µM; in the test with HOP-92 NSCLC it was 34.5 µM. Moreover, the TGI in the test on SF-268 CNS was 40.5 µM; in the test on EKVX NSCLC it was 40.7 µM; in the test with MDA-MB-231 breast, 39.3 µM; in the test on LOX IMVI melanoma it was 31.7 µM.

On to `CC(=O)N[C@H]1C=C[C@@H]2/C=C(C)/C=C/[C@@H](C)[C@H]([C@H](C)[C@H](O)[C@@H](C)NC(C)=O)OC(=O)/C=C/C=C(C)\C=C\[C@]2(C)C1`, for which the GI50 in the test on OVCAR-5 ovarian was 14.1 µM; with UACC-62 melanoma, 0.0228 µM and 0.0315 µM; in the test with SNB-75 CNS, 2.43 nM and 4.5 nM; in the test on HOP-92 NSCLC, 9.54 nM and 4.5 nM; in the test with SF-268 CNS, 126 nM and 32.2 nM; with MDA-MB-231 breast it was 3.33 nM and < 4.5 nM. The GI50 in the test with LOX IMVI melanoma is 7.34 nM and < 4.5 nM. Further, the TGI was > 45 µM in the test on OVCAR-5 ovarian; 4.65 µM and 13.3 µM in the test with UACC-62 melanoma; 4.65 µM and 20.6 µM in the test on HL-60(TB) leukemia; 4.65 µM and > 45 µM in the test with OVCAR-8 ovarian; 4.65 µM and > 45 µM in the test with SF-268 CNS; 4.65 µM and > 45 µM in the test with EKVX NSCLC. Besides, the TGI with MDA-MB-231 breast is 0.0235 µM and < 0.0045 µM; with LOX IMVI melanoma, 0.016 µM and < 0.0045 µM.

On to `CCN(CC)CCC(=O)NC1c2ccc(Cl)cc2Oc2c(C)cccc21` (stereo unspecified), for which the TGI in the test with OVCAR-5 ovarian is 29.2 µM; in the test with UACC-62 melanoma, 34 µM; in the test with HL-60(TB) leukemia it was 41.2 µM; in the test with OVCAR-8 ovarian, 31.4 µM; in the test with SNB-75 CNS, 22.5 µM; with HOP-92 NSCLC it was 40.8 µM. Besides, the TGI in the test on SF-268 CNS is 38.9 µM; in the test on EKVX NSCLC it was 36.9 µM; in the test with MDA-MB-231 breast it was 40.8 µM; in the test with LOX IMVI melanoma, 29.1 µM.

In the case of `CC(=O)C(=[N+]=[N-])C(=O)NCC#N`, the TGI in the test on OVCAR-5 ovarian, with UACC-62 melanoma, in the test with HL-60(TB) leukemia, with OVCAR-8 ovarian, in the test on SNB-75 CNS and in the test on HOP-92 NSCLC was > 10 µM in each case. Besides, the TGI with SF-268 CNS, in the test on EKVX NSCLC, in the test on MDA-MB-231 breast and in the test with LOX IMVI melanoma was > 10 µM each time.
